Measured values: patent publication US20090005711A1, “Systems and methods for opening of the blood-brain barrier of a subject using ultrasound” (priority 2005, published 2009)

How the values were obtained:
[1] = test system: left hippocampus (BBB opening and closure); assay: 9.4 T MRI of gadolinium deposition after FUS with SonoVue in APP/PS1 and NTg mice (Example C); type: in vivo, mouse
From the text: In an example, transgenic mice expressing mutant human APPK670N,M671L protein (line Tg2576) and a line of mice expressing human mutant PS1M146V protein (line 8.9) were crossed to generate offspring: doubly transgenic APP/PS1 animals and wild-type NTg littermates A total of six mice (age: 12 months, mass: 26-37 g) were used: transgenic APP/PS1 (n=3) and NTg (m=3) mice.
The experimental timeline is depicted in FIG. 17. Each mouse 180 with intact skin and skull 182 was anesthetized using 1.25-2.50% isoflurane (SurgiVet, Smiths Medical PM, Inc., Wisconsin, USA) and placed prone with its head immobilized by a stereotaxic apparatus 184 (David Kopf Instruments, Tujunga, Calif.) that included a mouse head holder, ear bars, and a gas anesthesia mask (FIG. 16). […] A degassed water-filled container 186 sealed at the bottom with a thin, acoustically and optically transparent, Saran™ Wrap (Saran, SC Johnson, Racine, Wis., USA) was placed on top of the mouse head (FIG. 16). Ultrasound coupling gel 188 was also used to eliminate any remaining impedance mismatch.
FIG. 18(A) illustrates the frontal bone 200, sagittal suture 202, lambdoid suture 204, left parietal bone 206, right parietal bone 208, and intraparietal bone 210. […] The beam axis of the transducer was aligned 2.25 mm away from the sagittal suture 202 and 2 mm away from the lambdoid suture 204 (FIG. 18(A)). The focal point was placed 3 mm beneath the top of the parietal bone of the skull (dotted line in FIG. 18(A)). In this placement, the focus of the FUS beam overlapped with the left hippocampus 212 and the left posterior cerebral artery (PCA) (FIG. 18(A)-(B)). […] After the BBB opening, gadolinium was injected and monitored with MRI (FIG. 18(C). The horizontal slices shown in FIGS. 18(B)-(C) were obtained approximately 3 mm beneath the top of the skull. […]
A vertical bore 9.4-Tesla MR scanner (Bruker Medical, Boston, Mass., USA) was used to acquire images of mouse brains in two separate sessions. […] 1-2% isoflurane was administered while the respiration rate of the mouse was monitored throughout the entire MRI procedure. […]

[2] = test system: left hippocampus of the mouse brain (BBB opening)
Experimental: Brown CB57-b16 type mice (Charles River Laboratories, Wilmington, Mass., USA; mass: 23 to 28 g) were used in sonication procedures. The mice were anesthetized with a mixture of ketamine (Fort Dodge Animal Health, Fort Dodge, Iowa, USA; concentration: 75 mg per kg of body mass) and xylazine (Ben Venue Laboratories, Bedford, Ohio, USA; concentration: 3.75 mg per kg of body mass). Before sonication, the hair on the top of the mouse heads was removed using an electric trimmer and a depilatory cream. After sonication, but before MRI scanning, the mice were switched to administration of isoflurane to simplify the long anesthesia procedure necessary for MRI scanning. During all imaging procedures, the vital signs of the mice were continuously monitored.
Ultrasound gel was used further to reduce any remaining impedance mismatches between the thin plastic layer 138 and the mouse skin.
The focus of the transducer 102 was positioned inside the mouse brain using a grid positioning method, as discussed above. In this method, the sutures of the mouse skull seen through the skin were used as anatomic landmarks for targeting purposes. The location of the hippocampi were assumed relative to the sutures based on the mouse brain and known skull anatomy, as illustrated in FIG. 4. […] In CB57-b16 type mice, these were the sutures that could be clearly seen through the skin.
Ultrasound contrast medium was administered for transport across the BBB. A bolus of 10 μL (approximately 0.4 mL/kg) of ultrasound contrast agent (Optison) that contained microbubbles (mean diameter: 3.0 to 4.5 μm: concentration: 5.0 to 8.0×108 bubbles per mL) was injected into the right femoral vein of the mouse approximately 15 minutes before sonication (Table 1). Pulsed-wave FUS (burst rate: 10 Hz; burst duration: 20 ms; duty cycle: 20%; acoustic pressures at the focus: 2.0, 2.5 and 2.7 MPa) was then applied in a series of five shots lasting 30 seconds each with a 30 second delay between each shot. The FUS sonication procedure was performed once in each mouse brain. […]

SMILES: [Gd] [gadolinium]
- Contrast enhancement on MR images, day 1 ([1]; 0.64 MPa, 25 μl SonoVue, scans 90 min post-sonication, 90 min post-gadolinium injection (0.75 ml IP)): the entire left hippocampus and some of its surrounding regions were contrast-enhanced
- Area and degree of contrast enhancement, day 2 ([1]; 0.64 MPa, 25 μl SonoVue, scans 22 hours post-sonication, second gadolinium injection, compared with day 1): significantly reduced
- Residual gadolinium in pre-gadolinium T1 and T2-weighted images ([1]; before the day 2 scan (22 hours post-sonication)): no residual gadolinium
- Contrast enhancement / permeation on T1 MRI scans [2]: eventually encompassing the entire left hippocampus
- Contrast enhancement / BBB opening on T1 MRI scans ([2]; in vivo, ip): highly localized opening of the BBB near the PCA
- Contrast enhancement on T1 MRI scans ([2]; in vivo, ip): no contrast enhancement was observed
